Read-outs that look alike come from different tables or passages of the source.
How the values were obtained:
HT29 = assay: MTS cell viability assay; assay type: cell-based; settings: read-out: IC50 (μM) in the 24 h treatment HT29
Procedure: (§1) Cell line and cell culture. The human pancreatic cancer cell lines (MIA PaCa-2, BXPC3, and PANC-1) were originally purchased from ATCC and were kindly provided by Dr. Shiro Urayama's Lab. HT29, HCT116, H460, MCF7, NIH/3T3, and IMR-90 cell lines were purchased from ATCC. Bone marrow cells were collected from the leg bone marrows of FVB/N mice. All the cells were cultured at 37° C. in a humidified atmosphere of 5% CO2/95% air using the corresponding medium supplemented with 10% fetal bovine serum, […] according to ATCC protocol. All the cell lines have been tested for mycoplasma contamination routinely.
(§2) Cell viability, cell growth and colony formation. Cell viability was assessed by the MTS assay. Briefly, cells in 96-well plates (4,000 cell per well) were treated as indicated, followed by the incubation with MTS regents for 4 h. OD values (490 nm) were determined via a microplate reader. Results were shown as the average cell viability calculated from the formula of [(ODtreat−ODblank)/(ODcontrol−ODblank)×100%]. Drug combination data were analyzed by Combenefit 2.02. In cell growth assay, cells in 6-well plates (50,000 cell per well) were treated as indicated and were counted manually every 24 h. Colony formation assay was also performed on 6-well plates with a starting density of 1,000-2,000 cells per well. After incubated as indicated for 10-20 days, cells were washed with PBS and stained with the solution of crystal violet and methanol for 20 min.

MIA PaCa-2 = assay: MTS cell viability assay; assay type: cell-based, human; settings: read-out: IC50 (μM) in the 24 h treatment MIA PaCa-2
Procedure: as §1, §2

[1] = Drug loading using BAQ13 NPs; assay type: physicochemical; settings: for PDI / Size/diameter: BAQ13 NPs loaded with the drug or dye; for Encapsulation efficiency / Drug-loading content: drug or dye loaded in BAQ13 NPs; for Drug-loading content: mass ratio
Procedure: (§3) Preparation and characterization of BAQ ONNs. NPs were prepared through the re-precipitation method. BAQ derivatives in methanol were added dropwise into MilliQ water while stirring for 5 min (volume ratio, 1:10), and then homogenous NPs were obtained after rotary evaporation (40° C., 20 min), followed by the characterization with Zetasizer Nano ZS (Malvern). The TEM samples were prepared by dropping 0.5 mM NPs on carbon square mesh and dried naturally, which were then observed under the Talos L120C TEM (FEI) at an accelerating voltage of 80 kV. To determine the drug content in nanoformulations, the prepared drug-loaded NPs were cut off by centrifugal filter (ultracel-10 kDa, Millipore), and the absorbance of filtrate (diluted with DMSO, 1:10, volume ratio) was measured for calculation of drug concentrations.
Next investigation was whether liposome-like BAQ ONNs can encapsulate additional agents. Upon nanoprecipitation of BAQ13 and various agents, homogeneous NPs with monomodal size distributions spontaneously formed (Table 2 and FIG. 9G).

[2] = Titration with hydrochloric acid (pH buffering capacity); assay type: physicochemical; settings: 1 mM, 0.1 M HCl
Red blood cells = assay: pH-dependent haemolysis test; assay type: cell-based; settings: whole pH range, same concentration (50 μM, 4 h)
[3] = Nanoparticle characterization of BAQ NPs (DLS, TEM); assay type: physicochemical; settings: assembled NPs in water; for PDI / Size (nm): DLS
Procedure: as §3

MCF-7 = assay: MTS cell viability assay; assay type: cell-based; settings: 24 h; read-out: IC50 (μM) in the 24 h treatment MCF-7
Procedure: as §1, §2

H460 = assay: MTS cell viability assay; assay type: cell-based; settings: 24 h; read-out: IC50 (μM) in the 24 h treatment H460
Procedure: as §1, §2

BXPC-3 = assay: MTS cell viability assay; assay type: cell-based, human; settings: 24 h; read-out: IC50 (μM) in the 24 h treatment BXPC-3
Procedure: as §1, §2

PANC-1 = assay: MTS cell viability assay; assay type: cell-based, human; settings: 24 h; read-out: IC50 (μM) in the 24 h treatment PANC-1
Procedure: as §1, §2

[4] = system: three pancreatic cancer cell lines (MIA PaCa-2, BxPC-3, and PANC-1) and two colon cancer cell lines (HT29 and HCT116); assay: 48 h MTS assay on pancreatic and colon cancer cell lines; assay type: cell-based
Procedure: as §2
In vitro antitumour activity of BAQ derivatives. To systematically investigate the antitumour effects in vitro, three pancreatic cancer cell lines (MIA PaCa-2, BxPC-3, and PANC-1) and two colon cancer cell lines (HT29 and HCT116) were selected for a 48 h MTS assay. […] The improved anticancer activity of BAQ ONNs is attributable to their multiple functions in inducing LMP, lysosomal dysfunction and autophagy inhibition in cancer cells; these effects are considered to be important triggers of apoptosis. To examine the proapoptotic effects of BAQ ONNs, apoptosis signals in MIA PaCa-2 and HT29 cells was subsequently detected. […] Lys05, the control, increased apoptotic signals in a concentration-dependent manner, but its effect at a high concentration close to the IC50 was still milder than those of the low concentrations of BAQ ONNs.

[5] = system: various cancer cell lines; assay: Preliminary MTS screening, 24 h; assay type: cell-based; settings: 24 h MTS
Procedure: To verify the therapeutic effects of BAQ12-BAQ18, a preliminary screening was conducted using an MTS assay on various cancer cell lines. […] This decrease was due to gradual declines in the detergence and H^+ buffering capacity of compounds. Based on the results above, BAQ12 and BAQ13 were then selected as representatives for construction of BAQ ONNs in the following studies.
as §2

MIA PaCa-2 cells = assay: RNA sequencing, differentially expressed genes; assay type: cell-based, human; settings: 5 μM, 24 h, vs vehicle
Procedure: RNA-seq. Total RNA was extracted by the RNeasy Mini Kit (Qiagen, Germany) from the treated MIA PaCa-2 cells (5 μM, 24 h). Samples were submitted to the UC Davis Comprehensive Cancer Center's Genomics Shared Resource (GSR) for RNA-Seq analysis. Stranded RNA-Seq libraries were prepared from 100 ng total RNA using the NEBNext Ultra Directional RNA Library Prep Kit (New England BioLabs). Subsequently, libraries were combined for multiplex sequencing on an Illumina HiSeq 4000 System (2×150 bp, paired-end, >20×10^6 reads per sample). The data of normalized genes read counts were analyzed using fold change and t test. The Differentially expressed genes (DEGs) were collected for the signaling pathways enrichment by Funrich software 3.1.3. The gene sets were from MSigDB database (Broad Institute). GSEA was performed using GSEA version 3.0 in KEGG gene sets category online, with the following parameters: n=1,000 permutations, where p-adjust <0.05, and FDR <0.05 were considered significant.

HCT116 = assay: MTS cell viability assay; assay type: cell-based; settings: Homo sapiens, HCT-116, 48 h; read-out: IC50 values from the 48 h MTS assay (μM) HCT116
Procedure: as §1, §2

HT29 tumours = assay: HT29 xenograft model; settings: mice bearing HT29 tumours

Compound | PDI [1] | Size/diameter [1] [nm] | Encapsulation efficiency [1] [%] | Drug-loading content [1] [%] | Zeta Potential (mV) [3] [mV] | PDI [3] | Size (nm) [3] [nm] | IC50 (MCF-7) [µM] | IC50 (H460) [µM] | IC50 (HT29; 24 h) [µM] | IC50 (BXPC-3) [µM] | IC50 (MIA PaCa-2; 24 h) [µM] | IC50 (PANC-1) [µM] | other results
CCN(CCO)CCCC(C)Nc1ccnc2cc(Cl)ccc12 (centres unmarked) [HCQ, hydroxychloroquine] | – | – | – | – | – | – | – | – | – | – | – | – | – | IC50 (HT29; Homo sapiens, HT-29, 24 h): > 75 µM; IC50 (MIA PaCa-2; Homo sapiens, MIA PaCa-2, 24 h): 79.6 ± 8.5 µM
COc1ccc(-c2nc(-c3cc(C(F)(F)F)cc(C(F)(F)F)c3)n(Cc3ccc(C(N)=O)cc3)c2-c2ccc(OC)cc2)cc1 [Apoptozole] | 0.099 | 85 | 93 | 50 | – | – | – | – | – | – | – | – | – | –
CCCCCCCCCCCCNC(=O)[C@@H](N)COC.Cl [MSDH, O-Methyl-Serine-Dodecylamide Hydrochloride] | – | – | – | – | – | – | – | – | – | – | – | – | – | IC50 (HT29; Homo sapiens, HT-29, 24 h): 30.3 ± 4.8 µM; pH plateau upon titration with HCl [2]: 6.2; haemolytic response to pH (Red blood cells): only a weak haemolytic response to pH; IC50 (MIA PaCa-2; Homo sapiens, MIA PaCa-2, 24 h): 55.5 ± 7.1 µM
CC(C)C[C@H](NC(=O)[C@H](Cc1ccccc1)NC(=O)c1cnccn1)B(O)O [Bortezomib] | 0.09 | 92 | 89 | 50 | – | – | – | – | – | – | – | – | – | –
CC1(C)CCC2=C(O1)c1ccccc1C(=O)C2=O [β-lapachone] | 0.047 | 128 | 95 | 33 | – | – | – | – | – | – | – | – | – | –
CCc1c2c(nc3ccc(OC(=O)N4CCC(N5CCCCC5)CC4)cc13)-c1cc3c(c(=O)n1C2)COC(=O)[C@]3(O)CC [Irinotecan] | – | – | – | – | – | – | – | – | – | – | – | – | – | IC50 (HCT116): 17 ± 1 µM; Median Survival (HT29 tumours; survival analysis in text): 36 days; Median Survival (HT29 tumours; treatment terminated on the 24th day): 36 days
Cc1sc2c(c1C)C(c1ccc(Cl)cc1)=N[C@@H](CC(=O)OC(C)(C)C)c1nnc(C)n1-2 [JQ1] | 0.048 | 110 | 92 | 50 | – | – | – | – | – | – | – | – | – | –
Nc1cccc2c1CN(C1CCC(=O)NC1=O)C2=O (centres unmarked) [Lenalidomide] | 0.069 | 85 | 88 | 50 | – | – | – | – | – | – | – | – | – | –
CC[C@]1(O)C[C@@H]2CN(CCc3c([nH]c4ccccc34)[C@@](C(=O)OC)(c3cc4c(cc3OC)N(C)[C@H]3[C@@](O)(C(=O)OC)[C@H](OC(C)=O)[C@]5(CC)C=CCN6CC[C@]43[C@@H]65)C2)C1 [Vinblastine] | 0.133 | 60 | 95 | 50 | – | – | – | – | – | – | – | – | – | –
COc1cc([C@@H]2c3cc4c(cc3[C@@H](O[C@@H]3O[C@@H]5CO[C@@H](C)O[C@H]5[C@H](O)[C@H]3O)[C@H]3COC(=O)[C@H]23)OCO4)cc(OC)c1O [Etoposide] | 0.104 | 69 | 86 | 50 | – | – | – | – | – | – | – | – | – | –

Now from value to compound, other results behind:

PDI [1] | Size/diameter [1] [nm] | Encapsulation efficiency [1] [%] | Drug-loading content [1] [%] | Zeta Potential (mV) [3] [mV] | PDI [3] | Size (nm) [3] [nm] | IC50 (MCF-7) [µM] | IC50 (H460) [µM] | IC50 (HT29; 24 h) [µM] | IC50 (BXPC-3) [µM] | IC50 (MIA PaCa-2; 24 h) [µM] | IC50 (PANC-1) [µM] | Compound | other results
– | – | – | – | 39.5 ± 0.8 | 0.093 | 96.7 ± 1.6 | > 90 | > 90 | > 100 | > 90 | > 90 | > 90 | CCCCCCCCCCCCCCCCCCN(CCNc1ccnc2cc(Cl)ccc12)CCNc1ccnc2cc(Cl)ccc12 [BAQ18] | –
– | – | – | – | 38.0 ± 2.9 | 0.086 | 107.3 ± 2.6 | > 60 | 24.1 ± 0.4 | 16.1 ± 2.5 | 17.2 ± 2 | 42 ± 11.7 | 34.5 ± 3.9 | CCCCCCCCCCCCCCCN(CCNc1ccnc2cc(Cl)ccc12)CCNc1ccnc2cc(Cl)ccc12 [BAQ15] | –
– | – | – | – | 39.1 ± 0.4 | 0.069 | 137.9 ± 4.6 | 28.5 ± 3.5 | 24 ± 0.3 | 9.6 ± 2 | 7.5 ± 0.7 | 16 ± 1.8 | 10.4 ± 1.8 | CCCCCCCCCCCCCCN(CCNc1ccnc2cc(Cl)ccc12)CCNc1ccnc2cc(Cl)ccc12 [BAQ14] | –
– | – | – | – | 39.7 ± 1.9 | 0.097 | 99.1 ± 2.1 | 3.7 ± 0.3 | 2.2 ± 0.4 | 3 ± 1.1 | 3.1 ± 0.2 | 4.2 ± 1 | 4.3 ± 1 | CCCCCCCCCCCCCN(CCNc1ccnc2cc(Cl)ccc12)CCNc1ccnc2cc(Cl)ccc12 [BAQ13] | effect alone versus combination treatment with Lys05 and MSDH [4]: more effective than combination treatment with Lys05 and MSDH; fold more potent than HCQ [4]: 30 fold; fold higher potency than HCQ [5]: ~20 fold; fold higher potency than Lys05 [5]: ~3 fold; fold higher potency than MSDH [5]: ~10 fold; downregulated genes (MIA PaCa-2 cells): 181; upregulated genes (MIA PaCa-2 cells): 209; differentially expressed genes (DEGs) (MIA PaCa-2 cells; fold change≥2 and p value≤0.05): 390
– | – | – | – | 36.4 ± 1.5 | 0.069 | 102.5 ± 3.1 | 3.1 ± 0.1 | 2.7 ± 0.5 | 3.5 ± 1.2 | 2.9 ± 0.6 | 4.1 ± 0.8 | 4.5 ± 0.9 | CCCCCCCCCCCCN(CCNc1ccnc2cc(Cl)ccc12)CCNc1ccnc2cc(Cl)ccc12 [BAQ12] | effect alone versus combination treatment with Lys05 and MSDH [4]: more effective than combination treatment with Lys05 and MSDH; fold more potent than HCQ [4]: 30 fold; fold higher potency than HCQ [5]: ~20 fold; fold higher potency than Lys05 [5]: ~3 fold; fold higher potency than MSDH [5]: ~10 fold
– | – | – | – | 40.4 ± 0.5 | 0.082 | 119.7 ± 2.1 | > 90 | > 90 | > 80 | 27.6 ± 2.8 | 60.7 ± 13.9 | > 90 | CCCCCCCCCCCCCCCCN(CCNc1ccnc2cc(Cl)ccc12)CCNc1ccnc2cc(Cl)ccc12 [BAQ16] | –

From patent US20230348419A1, “BIAMINOQUINOLINES AND NANOFORMULATIONS FOR CANCER TREATMENT” (The Regents of the University of California, priority 2019, published 2023)
